According to ChEMBL document CHEMBL1201862, “PubChem BioAssay data set” (2004):
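96-well plates; 48 h exposure; 5 concentrations. Endpoints by linear interpolation between flanking doses. Not reached: highest tested concentration assigned. GI50 = concentration required for 50% inhibition of growth.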 Calls of active or inactive are those of the source. Cut-off read from the data, not from the text of the source: active = GI50 up to about 1.1 µM and inactive = higher.

Legend:
Assay in all cases: NCI tumour cell line growth inhibition, 48 h
786-0 = test system: 786-0
A498 = test system: A498
A549 = test system: A549
ACHN = test system: ACHN
BT-549 = test system: BT-549
CAKI-1 = test system: CAKI-1
CCRF-CEM = test system: CCRF-CEM
COLO 205 = test system: COLO 205
DU-145 = test system: DU-145
EKVX = test system: EKVX
HCC 2998 = test system: HCC 2998
HCT-116 = test system: HCT-116
HCT-15 = test system: HCT-15
HL-60 = test system: HL-60
HOP-62 = test system: HOP-62
HOP-92 = test system: HOP-92
HT-29 = test system: HT-29
Hs-578T = test system: Hs-578T
IGROV-1 = test system: IGROV-1
K562 = test system: K562
KM12 = test system: KM12
LOX IMVI = test system: LOX IMVI
M14 = test system: M14
MCF7 = test system: MCF7
MDA-MB-231 = test system: MDA-MB-231
MDA-MB-435 = test system: MDA-MB-435
MDA-N = test system: MDA-N
MOLT-4 = test system: MOLT-4
Malme-3M = test system: Malme-3M
NCI-H226 = test system: NCI-H226
NCI-H23 = test system: NCI-H23
NCI-H460 = test system: NCI-H460
NCI-H522 = test system: NCI-H522
NCI/ADR-RES = test system: NCI/ADR-RES
OVCAR-3 = test system: OVCAR-3
OVCAR-4 = test system: OVCAR-4
OVCAR-5 = test system: OVCAR-5
OVCAR-8 = test system: OVCAR-8
PC-3 = test system: PC-3
RPMI-8226 = test system: RPMI-8226
RXF 393 = test system: RXF 393
SF-268 = test system: SF-268
SF-295 = test system: SF-295
SF-539 = test system: SF-539
SK-MEL-28 = test system: SK-MEL-28
SK-MEL-2 = test system: SK-MEL-2
SK-MEL-5 = test system: SK-MEL-5
SK-OV-3 = test system: SK-OV-3
SN12C = test system: SN12C
SNB-19 = test system: SNB-19
SNB-75 = test system: SNB-75
SR = test system: SR
SW-620 = test system: SW-620
T47D = test system: T47D
TK-10 = test system: TK-10
U-251 = test system: U-251
UACC-257 = test system: UACC-257
UACC-62 = test system: UACC-62
UO-31 = test system: UO-31

CC(=O)NCCC1CN(C(=O)/C=C\I)c2ccccc21 (stereo not drawn)
GI50 (786-0): 10.6 µM (inactive) | GI50 (A498): 18.4 µM (inactive) | GI50 (A549): 13.8 µM (inactive) | GI50 (ACHN): 14.5 µM (inactive) | GI50 (BT-549): 21.6 µM (inactive) | GI50 (CAKI-1): 1.73 µM (inactive) | GI50 (CCRF-CEM): 3.03 µM (inactive) | GI50 (COLO 205): 11.7 µM (inactive) | GI50 (DU-145): 13.9 µM (inactive) | GI50 (EKVX): 17.3 µM (inactive) | GI50 (HCC 2998): 15.2 µM (inactive) | GI50 (HCT-116): 14.6 µM (inactive) | GI50 (HCT-15): 7.71 µM | GI50 (HL-60): 2.7 µM (inactive) | GI50 (HOP-62): 11.2 µM (inactive) | GI50 (HOP-92): 21.7 µM (inactive) | GI50 (HT-29): 11.7 µM (inactive) | GI50 (Hs-578T): 27.2 µM (inactive) | GI50 (IGROV-1): 15.1 µM (inactive) | GI50 (K562): 3.76 µM (inactive) | GI50 (KM12): 5.7 µM (inactive) | GI50 (LOX IMVI): 3.08 µM (inactive) | GI50 (M14): 11.7 µM (inactive) | GI50 (MCF7): 2.56 µM (inactive) | GI50 (MDA-MB-231): 4.13 µM (inactive) | GI50 (MDA-MB-435): 14.2 µM (inactive) | GI50 (MDA-N): 12.6 µM (inactive) | GI50 (MOLT-4): 5.53 µM (inactive) | GI50 (Malme-3M): 15.2 µM (inactive) | GI50 (NCI-H226): 10.7 µM (inactive) | GI50 (NCI-H23): 16.4 µM (inactive) | GI50 (NCI-H460): 9.75 µM (inactive) | GI50 (NCI-H522): 1.78 µM (inactive) | GI50 (NCI/ADR-RES): 25.5 µM (inactive) | GI50 (OVCAR-3): 15 µM (inactive) | GI50 (OVCAR-4): 18.9 µM (inactive) | GI50 (OVCAR-5): 16.6 µM (inactive) | GI50 (OVCAR-8): 16.2 µM (inactive) | GI50 (PC-3): 11.7 µM (inactive) | GI50 (RPMI-8226): 2.08 µM (inactive) | GI50 (RXF 393): 7.29 µM (inactive) | GI50 (SF-268): 15.5 µM (inactive) | GI50 (SF-295): 15.3 µM (inactive) | GI50 (SF-539): 5.32 µM (inactive) | GI50 (SK-MEL-28): 16 µM (inactive) | GI50 (SK-MEL-2): 16 µM (inactive) | GI50 (SK-MEL-5): 3.48 µM (inactive) | GI50 (SK-OV-3): 20 µM (inactive) | GI50 (SN12C): 4.97 µM (inactive) | GI50 (SNB-19): 20.4 µM (inactive) | GI50 (SNB-75): 17.8 µM (inactive) | GI50 (SR): > 33.7 µM (inactive) | GI50 (SW-620): 12.7 µM (inactive) | GI50 (T47D): 18.2 µM (inactive) | GI50 (TK-10): 6.17 µM (inactive) | GI50 (U-251): 12.9 µM (inactive) | GI50 (UACC-257): 13.8 µM (inactive) | GI50 (UACC-62): 13 µM (inactive) | GI50 (UO-31): 7.69 µM (inactive)

CCCCCCCCCCCCCCC[C@@H](O)C[N+](C)(C)CCO
GI50 (786-0): 0.927 µM (active) | GI50 (A498): 19.1 µM (inactive) | GI50 (A549): 3.49 µM (inactive) | GI50 (ACHN): 3.95 µM (inactive) | GI50 (BT-549): 0.759 µM (active) | GI50 (CAKI-1): 0.977 µM (active) | GI50 (CCRF-CEM): 1.25 µM (inactive) | GI50 (COLO 205): 2.57 µM (inactive) | GI50 (DU-145): 7.66 µM (inactive) | GI50 (EKVX): 8.77 µM (inactive) | GI50 (HCC 2998): 1.8 µM (inactive) | GI50 (HCT-116): 3.99 µM (inactive) | GI50 (HCT-15): 2.6 µM | GI50 (HL-60): 0.149 µM (active) | GI50 (HOP-62): 2.88 µM (inactive) | GI50 (HOP-92): 1.27 µM (inactive) | GI50 (HT-29): 1.2 µM (inactive) | GI50 (Hs-578T): 1.38 µM (inactive) | GI50 (IGROV-1): 0.434 µM (active) | GI50 (K562): 2.41 µM (inactive) | GI50 (KM12): 0.841 µM (active) | GI50 (LOX IMVI): 2.07 µM (inactive) | GI50 (M14): 3.62 µM (inactive) | GI50 (MCF7): 5.85 µM (inactive) | GI50 (MDA-MB-231): 1.8 µM (inactive) | GI50 (MDA-MB-435): 4.84 µM (inactive) | GI50 (MDA-N): 5.98 µM (inactive) | GI50 (MOLT-4): 2.17 µM (inactive) | GI50 (Malme-3M): 2.81 µM (inactive) | GI50 (NCI-H226): 2.79 µM (inactive) | GI50 (NCI-H23): 2.06 µM (inactive) | GI50 (NCI-H460): 1.52 µM (inactive) | GI50 (NCI-H522): 1.42 µM (inactive) | GI50 (NCI/ADR-RES): 13.6 µM (inactive) | GI50 (OVCAR-3): 4.42 µM (inactive) | GI50 (OVCAR-4): 4.2 µM (inactive) | GI50 (OVCAR-5): 2.24 µM (inactive) | GI50 (OVCAR-8): 5.13 µM (inactive) | GI50 (PC-3): 1.06 µM (active) | GI50 (RPMI-8226): 2.21 µM (inactive) | GI50 (RXF 393): 1.11 µM (active) | GI50 (SF-268): 1.72 µM (inactive) | GI50 (SF-295): 2.37 µM (inactive) | GI50 (SF-539): 2.39 µM (inactive) | GI50 (SK-MEL-28): 19.3 µM (inactive) | GI50 (SK-MEL-2): 9.55 µM (inactive) | GI50 (SK-MEL-5): 2.72 µM (inactive) | GI50 (SK-OV-3): 7.76 µM (inactive) | GI50 (SN12C): 5.61 µM (inactive) | GI50 (SNB-19): 1.63 µM (inactive) | GI50 (SNB-75): 0.597 µM (active) | GI50 (SR): 1.72 µM (inactive) | GI50 (SW-620): 4.14 µM (inactive) | GI50 (T47D): 6.82 µM (inactive) | GI50 (TK-10): 1.31 µM (inactive) | GI50 (U-251): 1.73 µM (inactive) | GI50 (UACC-257): 10.2 µM (inactive) | GI50 (UACC-62): 3.92 µM (inactive) | GI50 (UO-31): 7.01 µM (inactive)
